Values quoted from earlier work as cited in patent US6916809B2, “Heterocyclic acridone inhibitors of IMPDH enzyme” (Bristol-Myers Squibb Company, priority 2001, dated 2005).
Where two headings read alike, the source gives them in different places.

Columns and labels:
[1] = test system: antigen-specific T lymphocyte responses; conditions: for synergistic effect with Rol on inhibition of antigen-induced proliferation: combined with Rol 10^-7 M; for approximate IC10: antigen-induced proliferation, Canelos et al. 2001; for % inhibition of proliferation: synergistic combination of rolipram and MPA
[2] = test system: IMPDH types I and II; conditions: low and high concentrations
[3] = test system: IL-2, IL-4, and IFN; conditions: Rol 10^-7 M, MPA 10^-8 M

| SMILES | synergistic effect with Rol on inhibition of antigen-induced proliferation [1] | gene expression for IMPDH types I and II [2] | downregulation in the generation of proinflammatory cytokines [3] | approximate IC10 [1] | % inhibition of proliferation ([1]; with deoxyguanosine (reversal), p<0.05) [%] | % inhibition of proliferation ([1]; without deoxyguanosine) [%] |
| --- | --- | --- | --- | --- | --- | --- |
| C=CC[C@@H]1/C=C(\C)C[C@H](C)C[C@H](OC)[C@H]2O[C@@](O)(C(=O)C(=O)N3CCCC[C@H]3C(=O)O[C@H](/C(C)=C/[C@@H]3CC[C@@H](O)[C@H](OC)C3)[C@H](C)[C@@H](O)CC1=O)[C@H](C)C[C@@H]2OC [tacrolimus] | little or no synergistic effect |  |  |  |  |  |
| COc1ccc(C2CNC(=O)C2)cc1OC1CCCC1 (stereo not shown) [Rol, 4-[3-(cyclopentyloxy)-4-methoxy-phenyl]-2-pyrrolidinone] |  | remained unaffected | no significant downregulation | ~10^−7 M |  |  |
| CCCC(=O)Nc1ncnc2c1ncn2[C@@H]1O[C@@H]2COP(=O)(O)O[C@H]2[C@H]1OC(=O)CCC [dibuteryl-cAMP] |  |  |  | ~2e-06 M |  |  |
| COc1c(C)c2c(c(O)c1C/C=C(\C)CCC(=O)O)C(=O)OC2 [MPA, mycophenolic acid] | marked synergistic effect | remained unaffected | no significant downregulation |  | 35±12 | 81±16 |
